The values that follow come from US20250146039A1, “Terpene Glycoside Derivatives and Uses Thereof” (Firmenich SA, priority 2018, published 2025).

For the assay, the system named is panel of taste experts. In words: taste evaluation of purified compounds in a water base. Format: in vivo. The settings on record: 500 ppm in a water base. The method, then: A composition comprising the at least one glucosylated terpene glucosides was generated according to the methods described in the preceding examples. The compounds were dissolved in water (alternatively, the compounds could also be combined into a 2% (w/w) or 4% (w/w) sucrose solution or 7% (w/w) inverted sugar plus 0.15% citric acid (w/w) solution), wherein the final concentration of the composition in solution may range from 1 to 1000 ppm. A panel of taste experts evaluated the solutions.

Take `C=C1C[C@@]23CC[C@H]4[C@@](C)(CCC[C@@]4(C)C(=O)O[C@@H]4OC(CO[C@H]5OC(CO)[C@@H](O)C(O)C5O)[C@@H](O)C(O)C4O)[C@@H]2CC[C@]1(O[C@@H]1OC(CO)[C@@H](O)C(O[C@@H]2OC(CO)[C@@H](O)C(O)C2O)C1O[C@@H]1OC(CO)[C@@H](O)C(O)C1O)C3` (stereo partly drawn) [compound of formula III, Mono α-1,6-glucosylated Rebaudioside A]: the “taste perceived” value is “strong sweet taste” and the “times sweeter than sucrose” value is given as 200-300 times.

Consider `C=C1C[C@@]23CC[C@H]4[C@@](C)(CCC[C@@]4(C)C(=O)O[C@@H]4OC(CO)[C@@H](O)C(O)C4O)[C@@H]2CC[C@]1(O[C@@H]1OC(CO)[C@@H](O)C(O[C@@H]2OC(CO[C@H]4OC(CO)[C@@H](O)C(O)C4O)[C@@H](O)C(O)C2O)C1O[C@@H]1OC(CO)[C@@H](O)C(O)C1O)C3` (stereo partly shown) [compound of formula VIII], for which the “taste perceived” value is “strong sweet taste” and the “times sweeter than sucrose” value was 200-300 times.
